*1 amine or outer side, *2 acyl side, *3 side chain or, on linkers, in order; H or OH if unused. Where a SMILES comes first, the peptide text is derived from it. Bridges are numbered along the chain shown (N, C = ends). [ ]: non-standard residue; d: D form. Phe(Nα-(CH2)3CO) = O=C([C@H](Cc1ccccc1)N(CCCC(=O)[*:3])[*:1])[*:2]; Phe(Nα-CH2CH2CO) = O=C([C@H](Cc1ccccc1)N(CCC(=O)[*:3])[*:1])[*:2]; N(2-aminoethyl)Phe = O=C([C@H](Cc1ccccc1)N(CCN[*:3])[*:1])[*:2]; NMeF = CN[C@@H](Cc1ccccc1)C(=O)O; Sar = CNCC(=O)O
Key:
[1] = Apparent permeability across Caco-2 cells; format: ADME, cell-based; conditions: human
Intestine = assay: Apparent permeability across rat small intestine; format: ADME, tissue-based
[2] = Metabolic stability in rat brush border vesicles; format: ADME
[3] = Permeability across artificial membrane by PAMPA model; format: ADME; conditions: read-out: permeability
[4] = Apparent permeability across Caco-2 cells via paracellular pathway; format: ADME, cell-based; conditions: human
[5] = Permeability in biomimetic membrane layer DMPC vesicles assessed as decrease in fluorescence at 30 uM by colorimetric mixed-vesicle assay; format: ADME, cell membranes
[6] = Lipophilicity, log D in octanol at pH 7.4; format: physicochemical

| Compound | Papp [1] | Papp (Intestine) | Stability [2] | Papp [3] | Papp [4] | permeability [5] | logD [6] |
| --- | --- | --- | --- | --- | --- | --- | --- |
| C[C@@H]1NC(=O)[C@H](C)NC(=O)[C@H](C)NC(=O)[C@H](Cc2ccccc2)NCCC(=O)NCCN([C@@H](Cc2ccccc2)C(N)=O)C(=O)CNC1=O (H-[Phe(Nα-CH2CH2CO)]AAAG[N(2-aminoethyl)Phe]-NH2; lactam 1-6) | 3.47 ×10⁻⁶ cm/s | 6.16 ×10⁻⁶ cm/s | Stable |  |  |  |  |
| CN1CC(=O)N(C)CC(=O)N([C@@H](Cc2ccccc2)C(N)=O)CCNC(=O)CCN[C@@H](Cc2ccccc2)C(=O)N(C)CC(=O)N(C)CC1=O (H-[Phe(Nα-CH2CH2CO)][Sar][Sar][Sar][Sar][N(2-aminoethyl)Phe]-NH2; lactam 1-6) | 1.56 ×10⁻⁶ cm/s | 4.87 ×10⁻⁶ cm/s | Stable |  |  |  |  |
| CN[C@@H](Cc1ccccc1)C(=O)N(C)CC(=O)N(C)CC(=O)NCC(=O)NCC(=O)N(C)[C@@H](Cc1ccccc1)C(N)=O (H-[NMeF][Sar][Sar]GG[NMeF]-NH2) | 0.46 ×10⁻⁶ cm/s | 1 ×10⁻⁶ cm/s |  |  |  |  |  |
| C[C@@H]1NC(=O)[C@H](Cc2ccccc2)NCCC(=O)NCCN([C@@H](Cc2ccccc2)C(N)=O)C(=O)CNC(=O)CNC(=O)CNC1=O (H-[Phe(Nα-CH2CH2CO)]AGGG[N(2-aminoethyl)Phe]-NH2; lactam 1-6) | 1.9 ×10⁻⁶ cm/s | 3.89 ×10⁻⁶ cm/s | Stable |  |  |  |  |
| C[C@H](NC(=O)[C@H](C)NC(=O)[C@H](Cc1ccccc1)NCCC(=O)O)C(=O)N[C@@H](C)C(=O)N[C@@H](C)C(=O)N(CCN)[C@@H](Cc1ccccc1)C(N)=O (H-[Phe(Nα-CH2CH2CO)]AAAA[N(2-aminoethyl)Phe]-NH2) | 0.2 ×10⁻⁶ cm/s | 0.67 ×10⁻⁶ cm/s |  |  |  |  |  |
| C[C@]12CC[C@H]3[C@@H](CCC4=CC(=O)CC[C@@]43C)[C@@H]1CC[C@@H]2O [TESTOSTERONE] |  |  |  | 8.67 ×10⁻⁶ cm/s |  |  |  |
| CN1CC(=O)NCC(=O)N([C@@H](Cc2ccccc2)C(N)=O)CCNC(=O)CCN[C@@H](Cc2ccccc2)C(=O)N(C)CC(=O)N(C)CC1=O (H-[Phe(Nα-CH2CH2CO)][Sar][Sar][Sar]G[N(2-aminoethyl)Phe]-NH2; lactam 1-6) | 2.95 ×10⁻⁶ cm/s | 5.63 ×10⁻⁶ cm/s | Stable |  |  |  |  |
| OC[C@@H](O)[C@@H](O)[C@H](O)[C@H](O)CO [MANNITOL] | 2.2 ×10⁻⁶ cm/s | 5 ×10⁻⁶ cm/s |  |  |  |  |  |
| CN[C@@H](Cc1ccccc1)C(=O)N(C)CC(=O)NCC(=O)NCC(=O)NCC(=O)N(C)[C@@H](Cc1ccccc1)C(N)=O (H-[NMeF][Sar]GGG[NMeF]-NH2) | 0.58 ×10⁻⁶ cm/s | 0.75 ×10⁻⁶ cm/s |  |  | 1.74 ×10⁻⁶ cm/s | 35% |  |
| CN[C@@H](Cc1ccccc1)C(=O)N[C@@H](C)C(=O)N[C@@H](C)C(=O)NCC(=O)NCC(=O)N(C)[C@@H](Cc1ccccc1)C(N)=O (H-[NMeF]AAGG[NMeF]-NH2) | 0.87 ×10⁻⁶ cm/s | 0.99 ×10⁻⁶ cm/s |  |  |  |  |  |
| NC(=O)[C@H](Cc1ccccc1)N1CCNC(=O)CCN[C@@H](Cc2ccccc2)C(=O)NCC(=O)NCC(=O)NCC(=O)NCC1=O (H-[Phe(Nα-CH2CH2CO)]GGGG[N(2-aminoethyl)Phe]-NH2; lactam 1-6) | 5.43 ×10⁻⁶ cm/s |  | Stable |  |  | 40% | -0.41 |
| NC(=O)[C@H](Cc1ccccc1)N1CCNC(=O)CCCN[C@@H](Cc2ccccc2)C(=O)NCC(=O)NCC(=O)NCC(=O)NCC1=O (H-[Phe(Nα-(CH2)3CO)]GGGG[N(2-aminoethyl)Phe]-NH2; lactam 1-6) | 2.73 ×10⁻⁶ cm/s | 4.2 ×10⁻⁶ cm/s | Stable |  |  |  |  |
| C[C@@H]1NC(=O)[C@H](C)NC(=O)[C@H](Cc2ccccc2)NCCC(=O)NCCN([C@@H](Cc2ccccc2)C(N)=O)C(=O)[C@H](C)NC(=O)[C@H](C)NC1=O (H-[Phe(Nα-CH2CH2CO)]AAAA[N(2-aminoethyl)Phe]-NH2; lactam 1-6) | 1.47 ×10⁻⁶ cm/s | 5.63 ×10⁻⁶ cm/s | Stable |  |  |  | 0.49 |
| NC(=O)[C@H](Cc1ccccc1)N1CCNC(=O)CCCCN[C@@H](Cc2ccccc2)C(=O)NCC(=O)NCC(=O)NCC(=O)NCC1=O | 1.5 ×10⁻⁶ cm/s | 5.02 ×10⁻⁶ cm/s | Stable |  |  |  |  |
| C[C@@H]1NC(=O)[C@H](C)NC(=O)[C@H](Cc2ccccc2)NCCC(=O)NCCN([C@@H](Cc2ccccc2)C(N)=O)C(=O)CNC(=O)CNC1=O (H-[Phe(Nα-CH2CH2CO)]AAGG[N(2-aminoethyl)Phe]-NH2; lactam 1-6) | 3.22 ×10⁻⁶ cm/s | 5.26 ×10⁻⁶ cm/s | Stable |  |  |  |  |
| CN1CC(=O)NCC(=O)NCC(=O)N([C@@H](Cc2ccccc2)C(N)=O)CCNC(=O)CCN[C@@H](Cc2ccccc2)C(=O)N(C)CC1=O (H-[Phe(Nα-CH2CH2CO)][Sar][Sar]GG[N(2-aminoethyl)Phe]-NH2; lactam 1-6) | 2.45 ×10⁻⁶ cm/s | 3.94 ×10⁻⁶ cm/s | Stable |  |  |  |  |
| Nc1nc2c(ncn2COCCO)c(=O)[nH]1 [ACYCLOVIR] |  |  |  | 0.01 ×10⁻⁶ cm/s |  |  |  |
| CN1CC(=O)NCC(=O)NCC(=O)NCC(=O)N([C@@H](Cc2ccccc2)C(N)=O)CCNC(=O)CCN[C@@H](Cc2ccccc2)C1=O (H-[Phe(Nα-CH2CH2CO)][Sar]GGG[N(2-aminoethyl)Phe]-NH2; lactam 1-6) | 2.22 ×10⁻⁶ cm/s | 4.58 ×10⁻⁶ cm/s | Stable |  | 7.58 ×10⁻⁶ cm/s | 35% | -0.57 |
| CN[C@@H](Cc1ccccc1)C(=O)NCC(=O)NCC(=O)NCC(=O)NCC(=O)N(C)[C@@H](Cc1ccccc1)C(N)=O (H-[NMeF]GGGG[NMeF]-NH2) | 1.82 ×10⁻⁶ cm/s | 0.73 ×10⁻⁶ cm/s |  |  |  | 40% |  |
| Cc1cc(=O)n(-c2ccccc2)n1C [ANTIPYRINE] |  |  |  | 1.18 ×10⁻⁶ cm/s |  |  |  |

— ChEMBL document CHEMBL1138310, “Effect of structural and conformation modifications, including backbone cyclization, of hydrophilic hexapeptides on their intestinal permeability and enzymatic stability” (J Med Chem, 2007)
